# Laboratory results taken from patent publication US7371766B2, “Curcumin analogs with anti-tumor and anti-angiogenic properties” (Emory University, priority 1999, dated 2008).
# Legend:
# [1] = tested on: HL-60 (TB); assay: cells; settings: Homo sapiens, HL-60, 48 h; for GI50: read-out: Median Growth Inhibitory Concentration (GI50); for CC50: read-out: Median Lethal Concentration (LC50)
# [2] = tested on: K-562; assay: cells; settings: Homo sapiens, K562, 48 h; for GI50: read-out: Median Growth Inhibitory Concentration (GI50); for CC50: read-out: Median Lethal Concentration (LC50)
# [3] = tested on: RPMI-8226; assay: cells; settings: Homo sapiens, RPMI-8226, 48 h, read-out: Median Growth Inhibitory Concentration (GI50)
# [4] = tested on: EKVX; assay: cells; settings: Homo sapiens, 48 h; for GI50: read-out: Median Growth Inhibitory Concentration (GI50); for CC50: read-out: Median Lethal Concentration (LC50)
# [5] = tested on: NCI-H226; assay: cells; settings: Homo sapiens, NCI-H226, 48 h; for GI50: read-out: Median Growth Inhibitory Concentration (GI50); for CC50: read-out: Median Lethal Concentration (LC50)
# [6] = tested on: NCI-H460; assay: cells; settings: Homo sapiens, NCI-H460, 48 h; for GI50: read-out: Median Growth Inhibitory Concentration (GI50); for CC50: read-out: Median Lethal Concentration (LC50)
# [7] = tested on: COLO 205; assay: cells; settings: Homo sapiens, COLO 205, 48 h; for GI50: read-out: Median Growth Inhibitory Concentration (GI50); for CC50: read-out: Median Lethal Concentration (LC50)
# [8] = tested on: KM12; assay: cells; settings: Homo sapiens, KM12, 48 h; for GI50: read-out: Median Growth Inhibitory Concentration (GI50); for CC50: read-out: Median Lethal Concentration (LC50)
# [9] = tested on: SW-620; assay: cells; settings: Homo sapiens, SW-620, 48 h; for GI50: read-out: Median Growth Inhibitory Concentration (GI50); for CC50: read-out: Median Lethal Concentration (LC50)
# [10] = tested on: SF-268; assay: cells; settings: Homo sapiens, SF-268, 48 h; for GI50: read-out: Median Growth Inhibitory Concentration (GI50); for CC50: read-out: Median Lethal Concentration (LC50)
# [11] = tested on: SF-539; assay: cells; settings: Homo sapiens, SF-539, 48 h; for GI50: read-out: Median Growth Inhibitory Concentration (GI50); for CC50: read-out: Median Lethal Concentration (LC50)
# [12] = tested on: LOX IMVI; assay: cells; settings: Homo sapiens, 48 h, read-out: Median Growth Inhibitory Concentration (GI50)
# [13] = tested on: SK-MEL-28; assay: cells; settings: Homo sapiens, SK-MEL-28, 48 h; for GI50: read-out: Median Growth Inhibitory Concentration (GI50); for CC50: read-out: Median Lethal Concentration (LC50)
# [14] = tested on: SK-MEL-5; assay: cells; settings: Homo sapiens, SK-MEL-5, 48 h, read-out: Median Growth Inhibitory Concentration (GI50)
# [15] = tested on: UACC-62; assay: cells; settings: Homo sapiens, UACC-62, 48 h; for GI50: read-out: Median Growth Inhibitory Concentration (GI50); for CC50: read-out: Median Lethal Concentration (LC50)
# [16] = tested on: OVCAR-4; assay: cells; settings: Homo sapiens, OVCAR-4, 48 h; for GI50: read-out: Median Growth Inhibitory Concentration (GI50); for CC50: read-out: Median Lethal Concentration (LC50)
# [17] = tested on: 786-0; assay: cells; settings: Homo sapiens, 786-0, 48 h; for GI50: read-out: Median Growth Inhibitory Concentration (GI50); for CC50: read-out: Median Lethal Concentration (LC50)
# [18] = tested on: A498; assay: cells; settings: Homo sapiens, A498, 48 h; for GI50: read-out: Median Growth Inhibitory Concentration (GI50); for CC50: read-out: Median Lethal Concentration (LC50)
# [19] = tested on: ACHN; assay: cells; settings: Homo sapiens, 48 h; for GI50: read-out: Median Growth Inhibitory Concentration (GI50); for CC50: read-out: Median Lethal Concentration (LC50)
# [20] = tested on: CAKI-1; assay: cells; settings: Homo sapiens, CAKI-1, 48 h; for GI50: read-out: Median Growth Inhibitory Concentration (GI50); for CC50: read-out: Median Lethal Concentration (LC50)
# [21] = tested on: RXF 393; assay: cells; settings: Homo sapiens, RXF 393, 48 h; for GI50: read-out: Median Growth Inhibitory Concentration (GI50); for CC50: read-out: Median Lethal Concentration (LC50)
# [22] = tested on: SN12C; assay: cells; settings: Homo sapiens, 48 h; for GI50: read-out: Median Growth Inhibitory Concentration (GI50); for CC50: read-out: Median Lethal Concentration (LC50)
# [23] = tested on: UO-31; assay: cells; settings: Homo sapiens, UO-31, 48 h; for GI50: read-out: Median Growth Inhibitory Concentration (GI50); for CC50: read-out: Median Lethal Concentration (LC50)
# [24] = tested on: MCF-7; assay: cells; settings: Homo sapiens, MCF7, 48 h; for GI50: read-out: Median Growth Inhibitory Concentration (GI50); for CC50: read-out: Median Lethal Concentration (LC50)
# [25] = tested on: MDA-MB-231; assay: cells; settings: Homo sapiens, MDA-MB-231, 48 h; for GI50: read-out: Median Growth Inhibitory Concentration (GI50); for CC50: read-out: Median Lethal Concentration (LC50)
# [26] = tested on: HS 578T; assay: cells; settings: Homo sapiens, 48 h; for GI50: read-out: Median Growth Inhibitory Concentration (GI50); for CC50: read-out: Median Lethal Concentration (LC50)
# [27] = tested on: T-47D; assay: cells; settings: Homo sapiens, T47D, 48 h; for GI50: read-out: Median Growth Inhibitory Concentration (GI50); for CC50: read-out: Median Lethal Concentration (LC50)
# [28] = tested on: Sixty human tumor cell lines; assay: cells; settings: 48 h; for GI50: read-out: Median Growth Inhibitory Concentration (GI50), Mean; for CC50: read-out: Median Lethal Concentration (LC50), Mean
# [29] = tested on: Vascular Endothelial Growth Factor (VEGF) production by human melanoma cell line RPMI-7951; assay: VEGF ELISA, RPMI-7951; settings: for VEGF ELISA / VEGF: RPMI-7951; for VEGF ELISA: DMSO control 3713
# Procedure: RPMI-795 1, MDA-MB-231 and MDA-MB-435 cell lines were cultured in MEM-alpha medium (GIBCO-BRL, Long Island, N.Y.) containing 10% fetal bovine serum (RPMI-7951, MDA-MB-231) or 5% FBS (MDA-MB-435) at 37° C. and under 5% CO2/95% air. […] The cells were cultured in 48 well plates in all of the experiments described.
# A VEGF enzyme-linked immunosorbent assay (ELISA) was utilized to determine the effect of the compounds of the present invention on VEGF production of a variety of human cancer cell lines. For the VEGF assay, cells were plated at a concentration of 80,000 cells/well and cultured overnight. Compounds or vehicle (DMSO 0.1%) were then added and the plates were incubated for 72 hours. Supernatant was then collected from each well and frozen in a −80° C. freezer until needed. Cell viability was determined by Neutral Red Assay. VEGF ELISA Kit (R & D, Minneapolis, Minn.) was used to determine the amount of VEGF in the culture supernatants. The ELISA was carried out according to the manufacturer's procedure.
# [30] = Homo sapiens, RPMI-7951, 72 h, read-out: VEGF
# [31] = 5 μM, DMSO control 4197 (EF-25: 1045)
smiles,measurement,setting,value
COc1cc(/C=C/C(=O)CC(=O)/C=C/c2ccc(O)c(OC)c2)ccc1O [Curcumin],GI50,[1],7.9 µM
same,CC50,[1],< 100 µM
same,GI50,[2],3.2 µM
same,CC50,[2],< 100 µM
same,GI50,[3],2 µM
same,GI50,[4],15.8 µM
same,CC50,[4],79.4 µM
same,GI50,[5],20 µM
same,CC50,[5],< 100 µM
same,GI50,[6],7.9 µM
same,CC50,[6],63.1 µM
same,GI50,[7],12.6 µM
same,CC50,[7],63.1 µM
same,GI50,[8],5 µM
same,CC50,[8],63.1 µM
same,GI50,[9],4 µM
same,CC50,[9],79.4 µM
same,GI50,[10],6.3 µM
same,CC50,[10],< 100 µM
same,GI50,[11],3.2 µM
same,CC50,[11],31.6 µM
same,GI50,[12],2.5 µM
same,GI50,[13],5 µM
same,CC50,[13],50.1 µM
same,GI50,[14],7.9 µM
same,GI50,[15],6.3 µM
same,CC50,[15],50.1 µM
same,GI50,[16],10 µM
same,CC50,[16],< 100 µM
same,GI50,[17],3.2 µM
same,CC50,[17],39.8 µM
same,GI50,[18],15.8 µM
same,CC50,[18],63.1 µM
same,GI50,[19],12.6 µM
same,CC50,[19],63.1 µM
same,GI50,[20],12.6 µM
same,CC50,[20],50.1 µM
same,GI50,[21],3.2 µM
same,CC50,[21],50.1 µM
same,GI50,[22],7.9 µM
same,CC50,[22],63.1 µM
same,GI50,[23],12.6 µM
same,CC50,[23],50.1 µM
same,GI50,[24],3.2 µM
same,CC50,[24],< 100 µM
same,GI50,[25],20 µM
same,CC50,[25],< 100 µM
same,GI50,[26],10 µM
same,CC50,[26],< 100 µM
same,GI50,[27],7.9 µM
same,CC50,[27],< 100 µM
same,GI50,[28],6.7 µM
same,CC50,[28],66 µM
same,activity at 5 µM,[29]; [30],98%
same,activity at 20 µM,[29]; [30],5%
same,VEGF ELISA,[29]; 5 μM,3989 pg/ml/well
same,VEGF,[29]; [31],4111 pg/mL
same,VEGF ELISA,[29]; 20 μM,714 pg/ml/well
same,VEGF,"[29]; 20 μM, DMSO control 4197",221 pg/mL
C(=C\c1ccccc1)/S/C=C/c1ccccc1 [EF15],VEGF,"[29]; 5 μM, DMSO = 100",28%
same,VEGF ELISA,[29]; 5 μM,2361 pg/ml/well
same,VEGF,[29]; [31],1187 pg/mL
same,VEGF,"[29]; 20 μM, DMSO = 100",22%
same,VEGF ELISA,[29]; 20 μM,894 pg/ml/well
same,VEGF,"[29]; 20 μM, DMSO control 4197",938 pg/mL
"CC(=O)O.O=C1C(=Cc2ccccc2F)CNCC1=Cc1ccccc1F [EF24, 3,5-Bis-(2-fluorobenzylidene)-piperidin-4-one-acetate]",GI50,[1],0.4 µM
same,CC50,[1],> 100 µM
same,GI50,[2],0.3 µM
same,CC50,[2],75.4 µM
same,GI50,[3],0.2 µM
same,GI50,[4],0.9 µM
same,CC50,[4],9.4 µM
same,GI50,[5],3.6 µM
same,CC50,[5],48.3 µM
same,GI50,[6],81 µM
same,CC50,[6],50.1 µM
same,GI50,[7],0.8 µM
same,CC50,[7],8 µM
same,GI50,[8],0.2 µM
same,CC50,[8],3.4 µM
same,GI50,[9],0.2 µM
same,CC50,[9],4.4 µM
same,GI50,[10],0.6 µM
same,CC50,[10],55.6 µM
same,GI50,[11],0.3 µM
same,CC50,[11],7.6 µM
same,GI50,[12],0.2 µM
same,GI50,[13],2.1 µM
same,CC50,[13],33.1 µM
same,GI50,[14],1.3 µM
same,GI50,[15],1.6 µM
same,CC50,[15],4.5 µM
same,GI50,[16],0.7 µM
same,CC50,[16],17.2 µM
same,GI50,[17],0.2 µM
same,CC50,[17],1.6 µM
same,GI50,[18],0.9 µM
same,CC50,[18],3.4 µM
same,GI50,[19],1.1 µM
same,CC50,[19],5.6 µM
same,GI50,[20],0.8 µM
same,CC50,[20],27.2 µM
same,GI50,[21],0.6 µM
same,CC50,[21],3.6 µM
same,GI50,[22],1 µM
same,CC50,[22],5.4 µM
same,GI50,[23],0.6 µM
same,CC50,[23],4.5 µM
same,GI50,[24],0.2 µM
same,CC50,[24],5 µM
same,GI50,[25],1.3 µM
same,CC50,[25],9.1 µM
same,GI50,[26],1 µM
same,CC50,[26],81.4 µM
same,GI50,[27],1.3 µM
same,CC50,[27],51.9 µM
same,GI50,[28],0.7 µM
same,CC50,[28],13.2 µM
